Data reported in ChEMBL document CHEMBL2390840, “An analysis of the synthetic tryptamines AMT and 5-MeO-DALT: emerging 'Novel Psychoactive Drugs'” (Bioorg Med Chem Lett, 2013).

Legend:
[1] = target: T1, 5-hydroxytryptamine receptor 2A (Homo sapiens, UniProt P28223); experiment: Displacement of [3H]Ketanserin from human recombinant 5-HT2A receptor expressed in HEK293T cells after 1 to […] by scintillation counting analysis; format: cell-based, HEK-293T
[2] = target: T1, 5-hydroxytryptamine receptor 2A; experiment: Agonist activity at human 5-HT2A receptor expressed in HEK293 cells assessed as increase in calcium mobilization by FLIPR assay; format: functional, cell-based
[3] = target: 5-hydroxytryptamine receptor 1B (Homo sapiens, UniProt P28222); experiment: Displacement of [3H][…] from human recombinant 5-HT1B receptor expressed in HEK293 cells after 1 to […] by scintillation counting analysis; format: cell-based
[4] = target: T2, Sodium-dependent noradrenaline transporter (Homo sapiens, UniProt P23975); experiment: Inhibition of [3H]norepinephrine uptake at human NET expressed in HEK293 cells preincubated for 10 mins prior to substrate addition measured after 4 mins by […]; format: cell-based
[5] = Displacement of [3H]DTG from sigma 2 receptor in rat PC12 cells after 1 to […] by scintillation counting analysis; format: cell-based; details: pc-12
[6] = target: T2, Sodium-dependent noradrenaline transporter; experiment: Displacement of [3H]Nisoxetine from human recombinant norepinephrine transporter expressed in HEK293 cells after 1 to […] by scintillation counting analysis; format: cell-based
D(3) dopamine receptor = D(3) dopamine receptor (Homo sapiens, UniProt P35462); experiment: Displacement of [3H]N-methylspiperone from human recombinant dopamine D3 receptor expressed in HEK293 cells after 1 to […] by scintillation counting analysis; format: cell-based
[7] = target: Alpha-2C adrenergic receptor (Homo sapiens, UniProt P18825); experiment: Displacement of [3H]Clonidine from human recombinant adrenergic alpha2C receptor expressed in MDCK cells after 1 to […] by scintillation counting analysis; format: cell-based
[8] = target: Alpha-1A adrenergic receptor (Homo sapiens, UniProt P35348); experiment: Displacement of [3H]Prazosin from human recombinant adrenergic alpha1A receptor expressed in HEK293 cells after 1 to […] by scintillation counting analysis; format: cell-based
Alpha-1A adrenergic receptor, sequence (P35348 whole entry): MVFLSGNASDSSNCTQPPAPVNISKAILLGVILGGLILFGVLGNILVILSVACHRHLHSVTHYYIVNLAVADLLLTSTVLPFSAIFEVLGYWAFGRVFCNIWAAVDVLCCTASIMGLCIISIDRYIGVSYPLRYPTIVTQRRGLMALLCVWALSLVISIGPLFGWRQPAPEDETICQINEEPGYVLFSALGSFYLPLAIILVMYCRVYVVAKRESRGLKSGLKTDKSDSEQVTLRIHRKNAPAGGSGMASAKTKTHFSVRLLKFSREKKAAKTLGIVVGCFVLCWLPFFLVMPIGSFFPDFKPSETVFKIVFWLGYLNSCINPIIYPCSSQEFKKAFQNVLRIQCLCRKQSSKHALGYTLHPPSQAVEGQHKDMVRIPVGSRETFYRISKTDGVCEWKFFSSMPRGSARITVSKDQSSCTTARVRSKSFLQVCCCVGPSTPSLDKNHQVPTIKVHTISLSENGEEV

T2 sequence (P23975 whole entry): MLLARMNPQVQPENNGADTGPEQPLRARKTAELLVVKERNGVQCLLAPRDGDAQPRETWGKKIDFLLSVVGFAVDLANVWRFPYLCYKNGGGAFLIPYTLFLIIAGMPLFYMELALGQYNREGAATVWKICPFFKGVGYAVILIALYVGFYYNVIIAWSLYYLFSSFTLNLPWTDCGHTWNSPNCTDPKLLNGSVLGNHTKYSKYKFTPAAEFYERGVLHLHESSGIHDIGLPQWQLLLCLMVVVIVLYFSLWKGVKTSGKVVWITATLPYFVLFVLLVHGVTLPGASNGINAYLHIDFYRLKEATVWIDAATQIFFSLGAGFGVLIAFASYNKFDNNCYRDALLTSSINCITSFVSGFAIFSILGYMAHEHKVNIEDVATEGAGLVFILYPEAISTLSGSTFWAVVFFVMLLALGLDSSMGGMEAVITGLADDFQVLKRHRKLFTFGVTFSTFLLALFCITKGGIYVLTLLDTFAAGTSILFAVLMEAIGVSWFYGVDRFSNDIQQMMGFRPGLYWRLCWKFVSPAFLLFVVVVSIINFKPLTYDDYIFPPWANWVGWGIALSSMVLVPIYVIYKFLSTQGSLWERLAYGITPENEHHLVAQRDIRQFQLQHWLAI
T1 sequence (P28223 whole entry): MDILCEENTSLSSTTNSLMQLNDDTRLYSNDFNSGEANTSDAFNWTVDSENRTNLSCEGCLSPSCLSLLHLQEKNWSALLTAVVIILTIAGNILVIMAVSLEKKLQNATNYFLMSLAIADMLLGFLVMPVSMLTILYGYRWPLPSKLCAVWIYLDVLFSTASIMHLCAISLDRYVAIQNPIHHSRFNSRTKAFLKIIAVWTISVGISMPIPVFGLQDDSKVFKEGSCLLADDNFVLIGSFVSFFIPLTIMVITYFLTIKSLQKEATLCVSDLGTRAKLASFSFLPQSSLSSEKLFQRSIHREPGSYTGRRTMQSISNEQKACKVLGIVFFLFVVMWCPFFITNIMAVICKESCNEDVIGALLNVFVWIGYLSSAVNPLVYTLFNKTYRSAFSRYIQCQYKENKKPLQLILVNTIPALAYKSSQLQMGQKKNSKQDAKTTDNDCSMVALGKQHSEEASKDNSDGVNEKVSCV
D(3) dopamine receptor, sequence (P35462 whole entry): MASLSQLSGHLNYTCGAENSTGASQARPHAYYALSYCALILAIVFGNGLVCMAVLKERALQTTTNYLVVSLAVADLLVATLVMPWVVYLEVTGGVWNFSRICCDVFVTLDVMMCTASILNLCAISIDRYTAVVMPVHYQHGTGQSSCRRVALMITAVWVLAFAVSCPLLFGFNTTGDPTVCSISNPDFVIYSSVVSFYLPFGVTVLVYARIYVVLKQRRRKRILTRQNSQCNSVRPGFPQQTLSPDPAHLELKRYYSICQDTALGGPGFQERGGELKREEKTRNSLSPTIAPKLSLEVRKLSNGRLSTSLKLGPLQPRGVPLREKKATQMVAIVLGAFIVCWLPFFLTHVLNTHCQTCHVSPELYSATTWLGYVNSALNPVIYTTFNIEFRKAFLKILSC
5-hydroxytryptamine receptor 1B, sequence (P28222 whole entry): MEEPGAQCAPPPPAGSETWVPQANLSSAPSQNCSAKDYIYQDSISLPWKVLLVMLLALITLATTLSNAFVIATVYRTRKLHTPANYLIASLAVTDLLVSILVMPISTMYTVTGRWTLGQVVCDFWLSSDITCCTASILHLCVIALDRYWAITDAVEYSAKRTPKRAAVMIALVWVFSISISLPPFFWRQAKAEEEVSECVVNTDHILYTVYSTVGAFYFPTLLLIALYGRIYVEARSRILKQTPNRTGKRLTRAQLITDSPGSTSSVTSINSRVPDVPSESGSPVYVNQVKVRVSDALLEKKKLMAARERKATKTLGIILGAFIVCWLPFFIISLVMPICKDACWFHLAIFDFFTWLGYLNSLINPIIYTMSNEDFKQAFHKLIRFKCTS
Alpha-2C adrenergic receptor, sequence (P18825 whole entry): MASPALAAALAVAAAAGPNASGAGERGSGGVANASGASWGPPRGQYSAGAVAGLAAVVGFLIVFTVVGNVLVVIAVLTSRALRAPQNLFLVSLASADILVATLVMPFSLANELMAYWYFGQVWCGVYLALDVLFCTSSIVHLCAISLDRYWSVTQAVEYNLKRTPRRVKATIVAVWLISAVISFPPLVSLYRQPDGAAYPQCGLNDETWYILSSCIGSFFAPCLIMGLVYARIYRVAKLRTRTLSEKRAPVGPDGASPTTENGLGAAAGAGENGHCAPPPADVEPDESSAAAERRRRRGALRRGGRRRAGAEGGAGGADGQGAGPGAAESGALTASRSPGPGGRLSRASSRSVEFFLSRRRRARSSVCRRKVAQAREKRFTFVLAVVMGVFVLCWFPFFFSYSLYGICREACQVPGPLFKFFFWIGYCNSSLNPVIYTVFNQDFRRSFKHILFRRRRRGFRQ

| SMILES | Ki [1] | EC50 ([2]; read-out: EC50) | EC50 ([2]; read-out: pEC50 (converted)) | Ki [3] | IC50 [4] | Ki [4] | pKi [5] | Ki [6] | Ki (D(3) dopamine receptor) | Ki [7] | Ki [8] |
| --- | --- | --- | --- | --- | --- | --- | --- | --- | --- | --- | --- |
| C=CCN(CC=C)CCc1c[nH]c2ccc(OC)cc12 | 0.555 µM | 0.0028 µM | 0.0275 µM |  |  |  |  |  |  |  |  |
| CC(N)Cc1c[nH]c2ccccc12 (stereo unspecified) |  |  |  | 0.559 µM | 3.72 µM | 0.642 µM | < 5 | > 10 µM | > 10 µM | > 10 µM | > 10 µM |
